pIC50: −log10 of the molar value. Counter-ions that a name gives are not always drawn. Like-named read-outs stand apart in the source and are kept apart here.
Columns and labels:
[1] = tested on: HeLa-MaTu-ADR, multidrug-resistant human cervical carcinoma cells; experiment: Proliferation assay, HeLa-MaTu-ADR (crystal violet); type: cell-based; details: 4 days, read-out: Inhibition of HeLa-MaTu-ADR cell proliferation IC50
Protocol: (§1) Cultivated tumour cells (HeLa, human cervical tumour cells, ATCC CCL-2; NCI-H460, human non-small cell lung carcinoma cells, ATCC HTB-177; A2780, human ovarian carcinoma cells, ECACC #93112519; DU 145, hormone-independent human prostate carcinoma cells, ATCC HTB-81; HeLa-MaTu-ADR, multidrug-resistant human cervical carcinoma cells, EPO-GmbH Berlin; Caco-2, human colorectal carcinoma cells, ATCC HTB-37; B16F10, mouse melanoma cells, ATCC CRL-6475) were plated at a density of 5,000 cells/well (DU145, HeLa-MaTu-ADR), 3,000 cells/well (NCI-H460, HeLa), 2,500 cells/well (A2780), 1,500 cells/well (Caco-2), or 1,000 cells/well (B16F10) in a 96-well multititer plate in 200 μL of their respective growth medium supplemented 10% fetal calf serum. After 24 hours, the cells of one plate (zero-point plate) were stained with crystal violet (see below), while the medium of the other plates was replaced by fresh culture medium (200 μl), to which the test substances were added in various concentrations (0 μM, as well as in the range of 0.001-10 μM; the final concentration of the solvent dimethyl sulfoxide was 0.5%). The cells were incubated for 4 days in the presence of test substances. Cell proliferation was determined by staining the cells with crystal violet: the cells were fixed by adding 20 μl/measuring point of an 11% glutaric aldehyde solution for 15 minutes at room temperature. After three washing cycles of the fixed cells with water, the plates were dried at room temperature. The cells were stained by adding 100 μl/measuring point of a 0.1% crystal violet solution (pH 3.0). After three washing cycles of the stained cells with water, the plates were dried at room temperature. The dye was dissolved by adding 100 μl/measuring point of a 10% acetic acid solution. The extinction was determined by photometry at a wavelength of 595 nm. The change of cell number, in percent, was calculated by normalization of the measured values to the extinction values of the zero-point plate (=0%) and the extinction of the untreated (0 μm) cells (=100%). The IC50 values (inhibitory concentration at 50% of maximal effect) were determined by means of a 4 parameter fit. Non-adherent MOLM-13 human acute myeloid leukemia cells (DSMZ ACC 554) were seeded at a density of 5,000 cells/well in a 96-well multititer plate in 100 μL of growth medium supplemented 10% fetal calf serum. After 24 hours, cell viability of one plate (zero-point plate) was determined with the Cell Titre-Glo Luminescent Cell Viability Assay (Promega), while 50 μL of test compound containing medium was added to the wells of the other plates (final concentrations in the range of 0.001-10 μM and DMSO controls; the final concentration of the solvent dimethyl sulfoxide was 0.5%). Cell viability was assessed after 72-hour exposure with the Cell Titre-Glo Luminescent Cell Viability Assay (Promega).

[2] = tested on: B16F10, mouse melanoma cells; experiment: Proliferation assay, B16F10 (crystal violet); type: cell-based; details: B16F10, 4 days, read-out: Inhibition of B16F10 cell proliferation IC50
Protocol: as §1

[3] = tested on: Caco-2, human colorectal carcinoma cells; experiment: Proliferation assay, Caco-2 (crystal violet); type: cell-based; details: Caco-2, 4 days, read-out: Inhibition of Caco-2 cell proliferation IC50
Protocol: as §1

CDK9/CycT1 = target: T1, CDK9/CycT1 (Homo sapiens, UniProt P50750); experiment: CDK9/CycT1 high ATP kinase assay (TR-FRET, 2 mM ATP); type: biochemical; details: Method 1b
T1 construct: Recombinant full-length His-tagged human CDK9 and CycT1; His; purchased Invitrogen PV4131; host or cells: insect cells
T1 sequence (P50750 whole entry): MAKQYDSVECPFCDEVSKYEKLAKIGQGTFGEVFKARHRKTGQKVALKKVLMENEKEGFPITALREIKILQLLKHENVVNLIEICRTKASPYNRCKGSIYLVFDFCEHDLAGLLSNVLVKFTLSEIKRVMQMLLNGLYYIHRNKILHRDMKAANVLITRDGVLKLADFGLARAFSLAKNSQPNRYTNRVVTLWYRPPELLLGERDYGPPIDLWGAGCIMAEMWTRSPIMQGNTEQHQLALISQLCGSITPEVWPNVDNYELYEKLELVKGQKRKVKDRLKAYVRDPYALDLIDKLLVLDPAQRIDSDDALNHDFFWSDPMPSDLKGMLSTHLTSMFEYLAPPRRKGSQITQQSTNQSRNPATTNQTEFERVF
T1 sequence (O60563 whole entry partner): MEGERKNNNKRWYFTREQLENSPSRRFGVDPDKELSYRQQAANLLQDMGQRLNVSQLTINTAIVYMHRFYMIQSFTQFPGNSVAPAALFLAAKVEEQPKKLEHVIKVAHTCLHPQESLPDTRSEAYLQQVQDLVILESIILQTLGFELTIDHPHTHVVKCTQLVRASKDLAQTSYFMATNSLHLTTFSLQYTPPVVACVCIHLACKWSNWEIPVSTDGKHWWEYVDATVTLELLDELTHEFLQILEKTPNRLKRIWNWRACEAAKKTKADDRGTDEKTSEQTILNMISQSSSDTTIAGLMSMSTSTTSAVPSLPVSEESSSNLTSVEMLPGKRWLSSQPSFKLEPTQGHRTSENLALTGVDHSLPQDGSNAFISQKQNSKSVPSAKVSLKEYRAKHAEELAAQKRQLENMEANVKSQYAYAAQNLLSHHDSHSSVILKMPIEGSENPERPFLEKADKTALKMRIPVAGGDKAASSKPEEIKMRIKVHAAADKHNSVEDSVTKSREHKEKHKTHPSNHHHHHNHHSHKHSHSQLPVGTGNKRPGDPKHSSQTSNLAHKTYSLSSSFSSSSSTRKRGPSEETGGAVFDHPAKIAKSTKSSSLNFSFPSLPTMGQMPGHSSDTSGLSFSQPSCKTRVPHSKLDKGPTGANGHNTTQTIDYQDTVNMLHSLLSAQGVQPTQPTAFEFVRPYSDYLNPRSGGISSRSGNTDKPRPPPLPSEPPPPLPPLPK
Protocol: 1b. CDK9/CyeT1 High ATP Kinase Assay
CDK9/CycT1-inhibitory activity of compounds of the present invention at a high ATP concentration after preincubation of enzyme and test compounds was quantified employing the CDK9/CycT1 TR-FRET assay as described in the following paragraphs.
Recombinant full-length His-tagged human CDK9 and CycT1, expressed in insect cells and purified by Ni-NTA affinity chromatography, were purchase from Invitrogen (Cat. No PV4131). As substrate for the kinase reaction biotinylated peptide biotin-Ttds-[…] (C-terminus in amid form) was used which can be purchased e.g. form the company JERINI peptide technologies (Berlin, Germany). For the assay 50 nl of a 100 fold concentrated solution of the test compound in DMSO was pipetted into a black low volume 384 well microtiter plate (Greiner Bio-One, Frickenhausen, Germany), 2 μl of a solution of CDK9/CycT1 in aqueous assay buffer [50 mM Tris/HCl pH 8.0, 10 mM MgCl2, 1.0 mM dithiothreitol, 0.1 mM sodium ortho-vanadate, 0.01% (v/v) Nonidet-P40 (Sigma)] were added and the mixture was incubated for 15 min at 22° C. to allow pre-binding of the test compounds to the enzyme before the start of the kinase reaction. Then the kinase reaction was started by the addition of 3 μl of a solution of adenosine-tri-phosphate (ATP, 3.3 mM=>final conc. in the 5 μl assay volume is 2 mM) and substrate (1.67 μM=>final conc. in the 5 μl assay volume is 1 μM) in assay buffer and the resulting mixture was incubated for a reaction time of 25 min at 22° C.
The resulting mixture was incubated 1 h at 22° C. to allow the formation of complex between the phosphorylated biotinylated peptide and the detection reagents. Subsequently the amount of phosphorylated substrate was evaluated by measurement of the resonance energy transfer from the Eu-chelate to the streptavidine-XL. Therefore, the fluorescence emissions at 620 nm and 665 nm after excitation at 350 nm was measured in a HTRF reader, e.g. a Rubystar (BMG Labtechnologies, Offenburg, Germany) or a Viewlux (Perkin-Elmer). The ratio of the emissions at 665 nm and at 622 nm was taken as the measure for the amount of phosphorylated substrate.

Compound	pIC50 ([1]; Homo sapiens, 96 h)	pIC50 ([2]; Mus musculus, B16-F10, 96 h)	pIC50 ([3]; Homo sapiens, Caco-2, 96 h)	pIC50 (CDK9/CycT1)	pIC50 [1]	pIC50 [2]	pIC50 [3]
COc1cc(F)ccc1-c1cc(Nc2cc(CS(C)(=N)=O)ccn2)ncc1F (racemic) [Example 1, (rac)-5-Fluoro-4-(4-fluoro-2-methoxyphenyl)-N-{4-[(S-methylsulfonimidoyl)methyl]pyridin-2-yl}pyridin-2-amine]	7.21	6.96	7.35	–	–	–	–
COc1cc(F)ccc1-c1cc(Nc2cc(CS(C)(=N)=O)cc(C)n2)ncc1F (racemic) [Example 4, (rac)-5-Fluoro-4-(4-fluoro-2-methoxyphenyl)-N-{6-methyl-4-[(S-methylsulfonimidoyl)methyl]pyridin-2-yl}pyridin-2-amine]	7.47	7.00	7.17	8.70	–	–	–
COc1cc(F)ccc1-c1cc(Nc2cc(CS(C)(=N)=O)c(Br)c(C)n2)ncc1F (racemic) [Example 5, (rac)-5-Bromo-N-[5-fluoro-4-(4-fluoro-2-methoxyphenyl)pyridin-2-yl]-6-methyl-4-[(S-methylsulfonimidoyl)methyl]pyridin-2-amine]	–	6.92	6.96	8.52	–	–	–
COc1cc(CS(C)(=N)=O)cc(Nc2cc(-c3ccc(F)cc3OC)c(F)cn2)n1 (racemic) [Example 6, (rac)-5-Fluoro-4-(4-fluoro-2-methoxyphenyl)-N-{6-methoxy-4-[(S-methylsulfonimidoyl)methyl]pyridin-2-yl}pyridin-2-amine]	7.52	7.48	7.51	9.00	–	–	–
COc1cc(F)ccc1-c1cc(Nc2cc(CS(C)(=N)=O)cc(Cl)n2)ncc1F (racemic) [Example 7, (rac)-N-{6-Chloro-4-[(S-methylsulfonimidoyl)methyl]pyridin-2-yl}-5-fluoro-4-(4-fluoro-2-methoxyphenyl)pyridin-2-amine]	7.49	7.47	7.39	8.70	–	–	–
COc1cc(F)ccc1-c1cc(Nc2cc(CS(=N)(=O)CCO)ccn2)ncc1F (racemic) [Example 8, (rac)-2-{S-[(2-{[5-Fluoro-4-(4-fluoro-2-methoxyphenyl)pyridin-2-yl]amino}pyridin-4-yl)methyl]sulfonimidoyl}ethanol]	6.70	6.73	6.80	7.85	–	–	–
COc1cc(F)ccc1-c1cc(Nc2cc(CS(=N)(=O)CCN)ccn2)ncc1F (racemic) [Example 9, (rac)-N-(4-{[S-(2-Aminoethyl)sulfonimidoyl]methyl}pyridin-2-yl)-5-fluoro-4-(4-fluoro-2-methoxyphenyl)pyridin-2-amine]	–	–	–	8.22	–	–	–
CCOC(=O)N=S(C)(=O)Cc1ccnc(Nc2cc(-c3ccc(F)cc3OC)c(F)cn2)c1 (racemic) [Example 11, (rac)-Ethyl{[(2-{[5-fluoro-4-(4-fluoro-2-methoxyphenyl)pyridin-2-yl]amino}pyridin-4-yl)methyl](methyl)oxido-λ^6-sulfanylidene}carbamate]	7.00	6.74	6.96	9.00	–	–	–
CCNC(=O)N=S(C)(=O)Cc1ccnc(Nc2cc(-c3ccc(F)cc3OC)c(F)cn2)c1 (racemic) [Example 12, (rac)-1-Ethyl-3-{[(2-{[5-fluoro-4-(4-fluoro-2-methoxyphenyl)pyridin-2-yl]amino}pyridin-4-yl)methyl](methyl)oxido-λ^6-sulfanylidene}urea]	7.00	6.89	7.01	8.70	–	–	–
COc1cc(F)ccc1-c1cc(Nc2cc(CS(C)(=N)=O)cc(C(F)F)n2)ncc1F (racemic) [Example 31, (rac)-N-{6-(Difluoromethyl)-4-[(S-methylsulfonimidoyl)methyl]pyridin-2-yl}-5-fluoro-4-(4-fluoro-2-methoxyphenyl)pyridin-2-amine]	–	–	–	9.00	–	–	–
COc1cc(F)ccc1-c1cc(Nc2cc(CS(C)(=N)=O)ccn2)ncc1F (single isomer, unassigned; (+)) [Example 2, (+)-5-Fluoro-4-(4-fluoro-2-methoxyphenyl)-N-{4-[(S-methylsulfonimidoyl)methyl]pyridin-2-yl}pyridin-2-amine]	–	–	–	–	7.48	6.62	7.21
COc1cc(F)ccc1-c1cc(Nc2cc(CS(C)(=N)=O)cc(F)n2)ncc1F (single isomer, unassigned; (+)) [Example 19, (+)-5-Fluoro-4-(4-fluoro-2-methoxyphenyl)-N-{6-fluoro-4-[(S-methylsulfonimidoyl)methyl]pyridin-2-yl}pyridin-2-amine]	7.19	7.02	–	7.72	–	–	–
COc1cc(F)ccc1-c1cc(Nc2cc(CS(C)(=N)=O)ccn2)ncc1F (single isomer, unassigned; (-)) [Example 3, (−)-5-Fluoro-4-(4-fluoro-2-methoxyphenyl)-N-{4-[(S-methylsulfonimidoyl)methyl]pyridin-2-yl}pyridin-2-amine]	–	–	–	–	7.43	6.51	7.24
COc1cc(F)ccc1-c1cc(Nc2cc(CS(C)(=N)=O)ccn2)ncc1F (single isomer, unassigned; enantiomer 1) [Example 16, 5-Fluoro-4-(4-fluoro-2-methoxyphenyl)-N-{4-[(S-methylsulfonimidoyl)methyl]pyridin-2-yl}pyridin-2-amine hydrochloride; enantiomer 1]	–	–	–	–	6.96	6.82	6.92
COc1cc(F)ccc1-c1cc(Nc2cc(CS(C)(=N)=O)ccn2)ncc1F.Cl (single isomer, unassigned; enantiomer 2) [Example 14, 5-Fluoro-4-(4-fluoro-2-methoxyphenyl)-N-{4-[(S-methylsulfonimidoyl)methyl]pyridin-2-yl}pyridin-2-amine hydrochloride; enantiomer 2]	–	–	–	–	7.34	7.14	7.43

— patent publication US9650340B2, “5-fluoro-N-(pyridin-2-yl)pyridin-2-amine derivatives containing a sulfoximine group” (BAYER PHARMA AKTIENGESELLSCHAFT, priority 2012, dated 2017)
